From US3975529A, “Diebenzo(B,E)thiepines” (Roussel-UCLAF, priority 1974, dated 1976)
Structures can show the parent of a compound that is named as a salt. Where two headings read alike, the source gives them in different places.

How the values were obtained:
[1] = test system: trembling and peripherical cholinergic manifestations provoked by tremorine; experiment: Antitremorine activity (ED50); assay type: in vivo; details: mice; for ED50: Mus musculus, ip, i.p. aqueous solution, tremorine 20 mg/kg i.p. half an hour after
Protocol: The antagonism of the test compounds to the trembling and peripherical cholinergic manifestations provoked by tremorine [Everett et al, Science, Vol. 124 (1956), p. 79] was studied on mice.
The product of Example 1 in aqueous solution was intraperitoneally administered at doses of 0.5, 1,2 and 5 mg/kg to groups of 10 mice and the mice received an intraperitoneal injection of 20 mg/kg of tremorine half an hour after the test product. The reactions (trembling, salivation, lacrymation) of the animals were observed 10, 20, 30 and 60 minutes after the tremorine injection. At the height of the activity, the 50% efficacy dose (ED50) in which 50% of the animals were protected from the trembling and peripheral parasympathomimetic reactions of salivation and lacrymation normally provoked by tremorine injection were determined.

[2] = Acute toxicity study (LD50); design: species or system mice; details: mouse, in vivo, aqueous solution
Protocol: The acute toxicity of the products was determined intraperitoneally or subcutaneously on mice weighing about 20 g with the LD50 dose being calculated by the method of Litchfield et al [J. Pharmacol. exp. Therap., Vol. 96 (1949), p. 99-133]. The LD50 for the product of Example 1 in aqueous solution was about 100 mg/kg intraperitoneally after 2 days of observation and about 500 mg/kg subcutaneously after 5 days of observation.

[3] = test system: antinociceptive activity of oxotremorine; experiment: Antagonism of antinociceptive activity of oxotremorine, hot plate (Table III); assay type: in vivo, mice
Protocol: The antinociceptive activity of oxotremorine [Leslie, J. Pharm. Pharmae., Vol. 2 (1969), p. 248-50] was determined on mice using the hot plate method of Eddy et al [J. Pharmacol. Vol. 107 (1953), p. 385] in the presence and absence of the test product presumed to be antagonistic. The product of Example 1 was administered subcutaneously in aqueous solution at doses of 50 and 100 mg/kg to groups of 10 mice and the products of Examples 2 to 5 were subcutaneously administered in sesame oil solution at doses of 200 and 400 mg/kg to groups of 10 mice. The mice then received a single intraperitoneal injection of 0.5 mg/kg of oxotremorine either 4 hours, 1 day, 2, 3, 4 or 7 days after the test product administration. For each time considerated, the mice were placed on the hot plate one half hour after the oxotremorine administration and the time for the appearance of nociceptive refluxes consistituted by simultaneous licking of the front paws was noted. The maximum time of staying on the hot plate was fixed at 45 seconds and the percentage of animals with a reaction time (RT) less than 40 seconds in spite of oxotremorine administration was determined.

[4] = test system: trembling and peripherial cholinergic manifestations provoked by oxotremorine; experiment: Antioxotremorine activity: antagonism to the trembling and peripherial cholinergic manifestations (Table II); assay type: in vivo, mice
Protocol: The antagonism of the test products to the trembling and peripherial cholinergic manifestations provoked by oxotremorine [Cho et al, J. Biochem. Biophys. Res. Commun., Vol. 5, (196l) p. 276] was studied on mice. The product of Example 1 was administered subcutaneously in aqueous solution at doses of 50 and 100 mg/kg to groups of 10 mice and the products of Example 2 were subcutaneously administered in sesame oil solution at doses of 200 and 400 mg/kg to groups of 10 mice. Control animals received no vehicle. The mice then received a single intraperitoneal dose of 0.5 mg/kg of oxotremorine either 4 hours, 1 day, 2, 3, 4 or 7 days after the injection of the test product. The reaction of the animals as in Table I were recorded 5,10 and 15 minutes after the injection of oxotremorine and the percent of inhibition of the different reactions, at the height of the effect, after the oxotremorine injection was determined as a function of time.

[5] = 50 mg/kg s.c. aqueous solution, after 4 h
[6] = 50 mg/kg s.c. aqueous solution, after 1 d
[7] = 100 mg/kg s.c. aqueous solution, after 4 h
[8] = 100 mg/kg s.c. aqueous solution, after 1 d

## OCCN1C2CCC1CC(=C1c3ccccc3CSc3ccccc31)C2 (racemic) [Example 1, dl N-(β-hydroxyethyl)-11-(3'-nortropylidene)-6,11-dihydrodibenzo(b,e)thiepine hydrochloride]
[1]; read-out: ED50 for parasympathomimetic reactions (salivation and lacrymation)
  ED50: 1 to 2 mg/kg
[1]; read-out: ED50 for trembling
  ED50: 1 mg/kg
[1]; antitremorine test, i.p.
  anticholinergic activity (in words): important anticholinergic activity
[2]; ip, after 2 days of observation
  LD50 at 48 h: ~100 mg/kg
[2]; sc, after 5 days of observation
  LD50 at 120 h: ~500 mg/kg
[3]; [5]
  % of animals with a RT less than 40 seconds: 100%
[3]; [6]
  % of animals with a RT less than 40 seconds: 10%
[3]; [7]
  % of animals with a RT less than 40 seconds: 100%
[3]; [8]
  % of animals with a RT less than 40 seconds: 20%
[3]; s.c., mice, Table III
  antagonistic activity against antinociceptive activity of oxotremorine (in words): important antagonistic activity against antinociceptive activity of oxotremorine which is manifested for several hours
[4]; [5]
  % inhibition of reactions: L (lacrymation): 100%
  % inhibition of reactions: S (salivation): 100%
  % inhibition of reactions: T (trembling): 100%
[4]; [6]
  % inhibition of reactions: L (lacrymation): 0%
  % inhibition of reactions: S (salivation): 0%
  % inhibition of reactions: T (trembling): 0%
[4]; [7]
  % inhibition of reactions: L (lacrymation): 100%
  % inhibition of reactions: S (salivation): 100%
  % inhibition of reactions: T (trembling): 100%
[4]; [8]
  % inhibition of reactions: L (lacrymation): 0%
  % inhibition of reactions: S (salivation): 0%
  % inhibition of reactions: T (trembling): 0%
